Measurements reported in patent publication US8785351B2, “Herbicidal compositions containing bentazon and ALS inhibitor and ACCase inhibitor” (Dow AgroSciences LLC, priority 2012, dated 2014).

Legend:
Test in all cases: Postemergence herbicidal activity of mixtures in the field (direct-seeded rice), visual weed control
Type in all cases: in vivo
[1] = system: Cyperus iria (CYPIR, rice flatsedge); settings: grams ai/ha: penoxsulam 1, bentazon-Na 112.5, cyhalofop-butyl 9.4, each alone or all three mixed, rice field trials
Experimental: (§1) Evaluation of Postemergence Herbicidal Activity of Mixtures in the Field
(§2) Field trials were conducted in Vietnam and Taiwan in cultivated direct-seeded rice using standard herbicide small plot research methodology. Plots varied from 1×2 meter (m) to 4×5 m (width×length) with 3-4 replicates per treatment. The rice crop was grown using normal cultural practices for fertilization, seeding, watering, flooding and maintenance to ensure good growth of the crop and the weeds.
(§3) All treatments in the field trials were applied using a backpack air sprayer with flat fan nozzles calibrated to apply 320 to 450 L/ha spray volume at approximately 30 PSI. Commercially available products of penoxsulam (Clipper 25OD), bispyribac-sodium (Nominee 100SC), bentazon-sodium (Basagran 480SL), cyhalofop-butyl (Clincher 100EC), and fenoxaprop-P-ethyl (Whip S) were mixed in water at appropriate formulated product rates to achieve the desired rates based on a unit area of application (hectare) to achieve the desired rates as shown. Treatments were rated at 7 to 42 days after application (DAA) as compared to the untreated control plants. Visual weed control was scored on a scale of 0 to 100 percent where 0 corresponds to no injury and 100 corresponds to complete kill.
(§4) All treatment results, both for the single product and mixtures, are an average of 3 to 4 replicates and the tank mix interactions are significant at the […] level.
(§5) Colby's equation was used to determine the herbicidal effects expected from the mixtures (Colby, S. R. Calculation of the synergistic and antagonistic response of herbicide combinations. Weeds 1967, 15, 20-22.).
(§6) The following equation was used to calculate the expected activity of mixtures containing […]: Expected=A+B+C−(AB+AC+BC)/100+(ABC)/10,000
(§7) A=observed efficacy of active ingredient A at the same concentration as used in the mixture.
(§8) B=observed efficacy of active ingredient B at the same concentration as used in the mixture.
(§9) C=observed efficacy of active ingredient C at the same concentration as used in the mixture.
(§10) All comparisons are an average of 3 to 4 replicates and are significant at the […] level.

[2] = system: Echinochloa crus-galli (ECHCG, barnyardgrass); settings: rice field trials
Experimental: as §1, §2, §3, §4, §5, §6, §7, §8, §9, §10

[3] = system: Fimbristylis miliacea (FIMMI, globe fringerush); settings: grams ai/ha: penoxsulam 10, bentazon-Na 900, cyhalofop-butyl 75, each alone or all three mixed, rice field trials
Experimental: as §1, §2, §3, §4, §5, §6, §7, §8, §9, §10

[4] = system: Leptochloa chinensis (LEFCH, Chinese sprangletop); settings: grams ai/ha: penoxsulam 1.6, bentazon-Na 112.5, cyhalofop-butyl 37.5, each alone or all three mixed, rice field trials
Experimental: as §1, §2, §3, §4, §5, §6, §7, §8, §9, §10

[5] = system: Monochoria vaginalis (MOOVA, monochoria); settings: rice field trials
Experimental: as §1, §2, §3, §4, §5, §6, §7, §8, §9, §10

[6] = grams ai/ha: penoxsulam 4 alone (6 in the mix), bentazon-Na 450, fenoxaprop-P-ethyl 8, each alone or all three mixed
[7] = grams ai/ha: penoxsulam 10, bentazon-Na 900, cyhalofop-butyl 75, each alone or all three mixed
[8] = grams ai/ha: bispyribac-Na 4, bentazon-Na 225, cyhalofop-butyl 75, each alone or all three mixed
[9] = grams ai/ha: penoxsulam 5, bentazon-Na 450, cyhalofop-butyl 37.5, each alone or all three mixed

Row | Compound | % Visual Control CYPIR (42 DAA) Obs [1] [%] | % Visual Control ECHCG (7 DAA) Obs [2, 6] [%] | % Visual Control ECHCG (7 DAA) Obs [2, 7] [%] | % Visual Control ECHCG (14 DAA) Obs [2, 8] [%] | % Visual Control ECHCG (14 DAA) Obs [2, 7] [%] | % Visual Control ECHCG (28 DAA) Obs [2, 7] [%] | % Visual Control FIMMI (42 DAA) Obs [3] [%] | % Visual Control LEFCH (7 DAA) Obs [4] [%] | % Visual Control MOOVA (7 DAA) Obs [5, 6] [%] | % Visual Control MOOVA (7 DAA) Obs [5, 9] [%] | % Visual Control MOOVA (14 DAA) Obs [5, 9] [%]
1 | CC(C)N1C(=O)c2ccccc2NS1(=O)=O [Bentazon (Na), 3-(1-methylethyl)-1H-2,1,3-benzothiadiazin-4(3H)-one 2,2-dioxide] | 63 | 0 | 0 | 0 | 0 | 0 | 0 | 0 | 17 | 0 | 0
2 | COc1cc(OC)nc(Oc2cccc(Oc3nc(OC)cc(OC)n3)c2C(=O)[O-])n1.[Na+] [Bispyribac (Na), sodium 2,6-bis(4,6-dimethoxypyrimidin-2-yloxy)benzoate] |  |  |  | 0 |  |  |  |  |  |  | 
3 | CCCCOC(=O)[C@@H](C)Oc1ccc(Oc2ccc(C#N)cc2F)cc1 [Cyhalofop (Butyl), (R)-butyl 2-[4-(4-cyano-2-fluorophenoxy)phenoxy]propanoate] | 0 |  | 37 | 40 | 43 | 40 | 60 | 83 |  | 0 | 0
4 | CCOC(=O)[C@@H](C)Oc1ccc(Oc2nc3ccc(Cl)cc3o2)cc1 [Fenoxaprop-P (Ethyl), (R)-ethyl-2-[4-(6-chloro-1,3-benzoxazol-2-yloxy)phenoxy]propanoate] |  | 0 |  |  |  |  |  |  | 0 |  | 
5 | COc1cnc(OC)n2nc(NS(=O)(=O)c3c(OCC(F)F)cccc3C(F)(F)F)nc12 [Penoxsulam, 2-(2,2-difluoroethoxy)-N-(5,8-dimethoxy[1,2,4]triazolo[1,5-c]pyrimidin-2-yl)-6-(trifluoromethyl)benzenesulfonamide] | 75 | 61 | 58 |  | 60 | 60 | 78 | 0 | 22 | 77 | 87
